Data taken from the supplement of paper PMC10307832.

Legend:
Assay in all cases: relative viability (nuclei count vs DMSO), 5 days (fraction); higher = more cells survive
Bexarotene = compound: C=C(c1ccc(C(=O)O)cc1)c1cc2c(cc1C)C(C)(C)CCC2(C)C [Bexarotene]
Method in brief: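 Viability here means nuclei in treated wells divided by nuclei in vehicle wells, reported as the median across plates. Only plates with control CV below 25% and at least one doubling passed. Lung cancer cell lines in 1536-well plates were exposed to five √10-spaced library-drug doses for 5 days and counted from 4× Hoechst images in MetaXpress.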

Bexarotene + Bortezomib = compound: C=C(c1ccc(C(=O)O)cc1)c1cc2c(cc1C)C(C)(C)CCC2(C)C [Bexarotene] + CC(C)C[C@H](NC(=O)[C@H](Cc1ccccc1)NC(=O)c1cnccn1)B(O)O [Bortezomib] (partner 0.002 µM)
Method in brief: (§1)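 Values are medians from duplicate plates. Each reflects relative viability, defined as the nuclei count of treated wells over that of vehicle wells. Lung cancer cell lines in 1536-well plates were pin-tool dosed one day after seeding with one drug alone or with a fixed anchor-drug dose plus five library-drug doses (not always all listed) in √10 steps, then fixed, stained and imaged at 4× after 5 days.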

Bexarotene + Navitoclax = compound: C=C(c1ccc(C(=O)O)cc1)c1cc2c(cc1C)C(C)(C)CCC2(C)C [Bexarotene] + CC1(C)CCC(c2ccc(Cl)cc2)=C(CN2CCN(c3ccc(C(=O)NS(=O)(=O)c4ccc(N[C@H](CCN5CCOCC5)CSc5ccccc5)c(S(=O)(=O)C(F)(F)F)c4)cc3)CC2)C1 [Navitoclax] (partner 0.5 µM)
Method in brief: as §1

Bexarotene + Foretinib = compound: C=C(c1ccc(C(=O)O)cc1)c1cc2c(cc1C)C(C)(C)CCC2(C)C [Bexarotene] + COc1cc2c(Oc3ccc(NC(=O)C4(C(=O)Nc5ccc(F)cc5)CC4)cc3F)ccnc2cc1OCCCN1CCOCC1 [Foretinib] (partner 0.25 µM)
Method in brief: as §1

Bexarotene + Lapatinib = compound: C=C(c1ccc(C(=O)O)cc1)c1cc2c(cc1C)C(C)(C)CCC2(C)C [Bexarotene] + CS(=O)(=O)CCNCc1ccc(-c2ccc3ncnc(Nc4ccc(OCc5cccc(F)c5)c(Cl)c4)c3c2)o1 [Lapatinib] (partner 2 µM)
Method in brief: as §1

Bexarotene + Pictilisib = compound: C=C(c1ccc(C(=O)O)cc1)c1cc2c(cc1C)C(C)(C)CCC2(C)C [Bexarotene] + CS(=O)(=O)N1CCN(Cc2cc3nc(-c4cccc5[nH]ncc45)nc(N4CCOCC4)c3s2)CC1 [Pictilisib] (partner 1 µM)
Method in brief: as §1

Bexarotene + Crizotinib = compound: C=C(c1ccc(C(=O)O)cc1)c1cc2c(cc1C)C(C)(C)CCC2(C)C [Bexarotene] + C[C@@H](Oc1cc(-c2cnn(C3CCNCC3)c2)cnc1N)c1c(Cl)ccc(F)c1Cl [Crizotinib] (partner 1 µM)
Method in brief: as §1

Bexarotene + Linsitinib = compound: C=C(c1ccc(C(=O)O)cc1)c1cc2c(cc1C)C(C)(C)CCC2(C)C [Bexarotene] + C[C@]1(O)C[C@@H](c2nc(-c3ccc4ccc(-c5ccccc5)nc4c3)c3c(N)nccn32)C1 [Linsitinib] (partner 1 µM)
Method in brief: as §1

Bexarotene + Alpelisib = compound: C=C(c1ccc(C(=O)O)cc1)c1cc2c(cc1C)C(C)(C)CCC2(C)C [Bexarotene] + Cc1nc(NC(=O)N2CCC[C@H]2C(N)=O)sc1-c1ccnc(C(C)(C)C(F)(F)F)c1 [Alpelisib] (partner 2 µM)
Method in brief: as §1

Bexarotene + Olaparib = compound: C=C(c1ccc(C(=O)O)cc1)c1cc2c(cc1C)C(C)(C)CCC2(C)C [Bexarotene] + O=C(c1cc(Cc2n[nH]c(=O)c3ccccc23)ccc1F)N1CCN(C(=O)C2CC2)CC1 [Olaparib] (partner 8 µM)
Method in brief: as §1

Bexarotene + Luminespib = compound: C=C(c1ccc(C(=O)O)cc1)c1cc2c(cc1C)C(C)(C)CCC2(C)C [Bexarotene] + CCNC(=O)c1noc(-c2cc(C(C)C)c(O)cc2O)c1-c1ccc(CN2CCOCC2)cc1 [Luminespib] (partner 0.01 µM)
Method in brief: as §1

Bexarotene + OSI-027 = compound: C=C(c1ccc(C(=O)O)cc1)c1cc2c(cc1C)C(C)(C)CCC2(C)C [Bexarotene] + COc1cccc2cc(-c3nc([C@H]4CC[C@H](C(=O)O)CC4)n4ncnc(N)c34)[nH]c12 [OSI-027] (partner 0.5 µM)
Method in brief: as §1

Bexarotene + Tozasertib = compound: C=C(c1ccc(C(=O)O)cc1)c1cc2c(cc1C)C(C)(C)CCC2(C)C [Bexarotene] + Cc1cc(Nc2cc(N3CCN(C)CC3)nc(Sc3ccc(NC(=O)C4CC4)cc3)n2)n[nH]1 [Tozasertib] (partner 0.1 µM)
Method in brief: as §1

Bexarotene + Dasatinib = compound: C=C(c1ccc(C(=O)O)cc1)c1cc2c(cc1C)C(C)(C)CCC2(C)C [Bexarotene] + Cc1nc(Nc2ncc(C(=O)Nc3c(C)cccc3Cl)s2)cc(N2CCN(CCO)CC2)n1 [Dasatinib] (partner 0.075 µM)
Method in brief: as §1

Bexarotene + Phenformin = compound: C=C(c1ccc(C(=O)O)cc1)c1cc2c(cc1C)C(C)(C)CCC2(C)C [Bexarotene] + N=C(N)NC(=N)NCCc1ccccc1 [Phenformin] (partner 250 µM)
Method in brief: as §1

## Calu-6
Bexarotene; 0.08 µM
  relative viability: 1.04
Bexarotene; 0.253 µM
  relative viability: 1.03
Bexarotene; 0.8 µM
  relative viability: 0.955
Bexarotene; 2.53 µM
  relative viability: 1.02
Bexarotene; 8 µM
  relative viability: 1.06
Bexarotene + Bortezomib; first compound 0.08 µM
  relative viability: 1
Bexarotene + Bortezomib; first compound 0.253 µM
  relative viability: 0.915
Bexarotene + Bortezomib; first compound 0.8 µM
  relative viability: 0.904
Bexarotene + Bortezomib; first compound 2.53 µM
  relative viability: 0.922
Bexarotene + Bortezomib; first compound 8 µM
  relative viability: 1.27
Bexarotene + Navitoclax; first compound 0.08 µM
  relative viability: 0.804
Bexarotene + Navitoclax; first compound 0.253 µM
  relative viability: 0.801
Bexarotene + Navitoclax; first compound 0.8 µM
  relative viability: 0.694
Bexarotene + Navitoclax; first compound 2.53 µM
  relative viability: 0.784
Bexarotene + Navitoclax; first compound 8 µM
  relative viability: 0.827
Bexarotene + Foretinib; first compound 0.08 µM
  relative viability: 0.973
Bexarotene + Foretinib; first compound 0.253 µM
  relative viability: 0.901
Bexarotene + Foretinib; first compound 0.8 µM
  relative viability: 0.752
Bexarotene + Foretinib; first compound 2.53 µM
  relative viability: 0.886
Bexarotene + Foretinib; first compound 8 µM
  relative viability: 1.02
Bexarotene + Lapatinib; first compound 0.08 µM
  relative viability: 0.929
Bexarotene + Lapatinib; first compound 0.253 µM
  relative viability: 1.03
Bexarotene + Lapatinib; first compound 0.8 µM
  relative viability: 0.987
Bexarotene + Lapatinib; first compound 2.53 µM
  relative viability: 0.963
Bexarotene + Lapatinib; first compound 8 µM
  relative viability: 1.14
Bexarotene + Pictilisib; first compound 0.08 µM
  relative viability: 0.944
Bexarotene + Pictilisib; first compound 0.253 µM
  relative viability: 0.926
Bexarotene + Pictilisib; first compound 0.8 µM
  relative viability: 0.911
Bexarotene + Pictilisib; first compound 2.53 µM
  relative viability: 1.11
Bexarotene + Pictilisib; first compound 8 µM
  relative viability: 0.884
Bexarotene + Crizotinib; first compound 0.08 µM
  relative viability: 0.786
Bexarotene + Crizotinib; first compound 0.253 µM
  relative viability: 0.753
Bexarotene + Crizotinib; first compound 0.8 µM
  relative viability: 0.72
Bexarotene + Crizotinib; first compound 2.53 µM
  relative viability: 0.823
Bexarotene + Crizotinib; first compound 8 µM
  relative viability: 0.94
Bexarotene + Linsitinib; first compound 0.08 µM
  relative viability: 1.02
Bexarotene + Linsitinib; first compound 0.253 µM
  relative viability: 0.886
Bexarotene + Linsitinib; first compound 0.8 µM
  relative viability: 0.729
Bexarotene + Linsitinib; first compound 2.53 µM
  relative viability: 0.91
Bexarotene + Linsitinib; first compound 8 µM
  relative viability: 0.954
Bexarotene + Alpelisib; first compound 0.08 µM
  relative viability: 1.12
Bexarotene + Alpelisib; first compound 0.253 µM
  relative viability: 0.917
Bexarotene + Alpelisib; first compound 0.8 µM
  relative viability: 0.934
Bexarotene + Alpelisib; first compound 2.53 µM
  relative viability: 0.958
Bexarotene + Alpelisib; first compound 8 µM
  relative viability: 1.05
Bexarotene + Olaparib; first compound 0.08 µM
  relative viability: 0.638
Bexarotene + Olaparib; first compound 0.253 µM
  relative viability: 0.563
Bexarotene + Olaparib; first compound 0.8 µM
  relative viability: 0.494
Bexarotene + Olaparib; first compound 2.53 µM
  relative viability: 0.606
Bexarotene + Olaparib; first compound 8 µM
  relative viability: 0.568

## NCI-H1623
Bexarotene; 0.08 µM
  relative viability: 0.751
Bexarotene; 0.253 µM
  relative viability: 0.849
Bexarotene; 0.8 µM
  relative viability: 0.815
Bexarotene; 2.53 µM
  relative viability: 0.854
Bexarotene; 8 µM
  relative viability: 0.806
Bexarotene + Luminespib; first compound 0.08 µM
  relative viability: 0.459
Bexarotene + Luminespib; first compound 0.253 µM
  relative viability: 0.476
Bexarotene + Luminespib; first compound 0.8 µM
  relative viability: 0.481
Bexarotene + Luminespib; first compound 2.53 µM
  relative viability: 0.441
Bexarotene + Luminespib; first compound 8 µM
  relative viability: 0.543
Bexarotene + Foretinib; first compound 0.08 µM
  relative viability: 0.836
Bexarotene + Foretinib; first compound 0.253 µM
  relative viability: 0.813
Bexarotene + Foretinib; first compound 0.8 µM
  relative viability: 0.805
Bexarotene + Foretinib; first compound 2.53 µM
  relative viability: 0.848
Bexarotene + Foretinib; first compound 8 µM
  relative viability: 0.773
Bexarotene + OSI-027; first compound 0.08 µM
  relative viability: 0.439
Bexarotene + OSI-027; first compound 0.253 µM
  relative viability: 0.441
Bexarotene + OSI-027; first compound 0.8 µM
  relative viability: 0.363
Bexarotene + OSI-027; first compound 2.53 µM
  relative viability: 0.407
Bexarotene + OSI-027; first compound 8 µM
  relative viability: 0.334
Bexarotene + Tozasertib; first compound 0.08 µM
  relative viability: 0.452
Bexarotene + Tozasertib; first compound 0.253 µM
  relative viability: 0.431
Bexarotene + Tozasertib; first compound 0.8 µM
  relative viability: 0.333
Bexarotene + Tozasertib; first compound 2.53 µM
  relative viability: 0.424
Bexarotene + Tozasertib; first compound 8 µM
  relative viability: 0.416
Bexarotene + Dasatinib; first compound 0.08 µM
  relative viability: 0.587
Bexarotene + Dasatinib; first compound 0.253 µM
  relative viability: 0.501
Bexarotene + Dasatinib; first compound 0.8 µM
  relative viability: 0.568
Bexarotene + Dasatinib; first compound 2.53 µM
  relative viability: 0.579
Bexarotene + Dasatinib; first compound 8 µM
  relative viability: 0.531
Bexarotene + Phenformin; first compound 0.08 µM
  relative viability: 0.661
Bexarotene + Phenformin; first compound 0.253 µM
  relative viability: 0.598
Bexarotene + Phenformin; first compound 0.8 µM
  relative viability: 0.528
Bexarotene + Phenformin; first compound 2.53 µM
  relative viability: 0.612
Bexarotene + Phenformin; first compound 8 µM
  relative viability: 0.504
